The experiment deals with T1, human OX1 receptor (Homo sapiens, UniProt O43613).
T1 sequence (O43613 1-425): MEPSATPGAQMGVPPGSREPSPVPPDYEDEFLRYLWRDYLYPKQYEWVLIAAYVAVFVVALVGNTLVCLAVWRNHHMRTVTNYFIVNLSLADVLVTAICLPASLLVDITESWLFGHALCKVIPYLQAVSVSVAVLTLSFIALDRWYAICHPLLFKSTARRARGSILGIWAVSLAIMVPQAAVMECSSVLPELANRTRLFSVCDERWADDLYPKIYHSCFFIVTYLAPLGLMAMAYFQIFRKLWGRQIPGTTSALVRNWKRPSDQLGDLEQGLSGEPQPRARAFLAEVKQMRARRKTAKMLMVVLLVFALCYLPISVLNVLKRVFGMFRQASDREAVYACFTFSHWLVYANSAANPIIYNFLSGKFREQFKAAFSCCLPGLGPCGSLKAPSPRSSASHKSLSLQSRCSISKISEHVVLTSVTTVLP
As to the kind of experiment: IPone accumulation assay, CHO cells expressing OX1 (antagonism of orexin A). Type of experiment: cell-based. The following applies: IPone accumulation, CHO human OX1, orexin A EC80 challenge (~20 nM); read-out: fpKb average OX1 (converted). The method, then: Generation of CHO stable cell lines expressing the human OX1R and OX2R. Stable cell lines for the human OX1R and OX2R receptors were generated through the transfection of CHO cells using the transfection reagent Genejuice (Novagen number 70967) and cDNA coding for either the human OX1R or OX2R. Cells were cultured in Sigma Nutrient Mixture F-12 Ham media (catalog number N6658) supplemented with 10% heat-inactivated FBS. Forty-eight hours after transfection, cells were harvested and placed under geneticin selection by culturing in Sigma Nutrient Mixture F-12 Ham media supplemented with 10% heat-inactivated FBS and geneticin (ThermoFisher Catalog number: 10131035). Selection of the final stable clone for each receptor was made on the basis of receptor expression, assay signal to noise and robustness though increasing passage. Selected clones for the human OX1R and OX2R were then frozen down into liquid nitrogen using Cell Freezing Medium-DMSO (Sigma-Aldrich catalog number: C6164). IPone accumulation assay. A CHO cell line stably expressing either human OX1 or OX2 receptor was used with the IPone HTRF assay kit (CisBio: Part #62[…]) to measure receptor activation. The assay was optimised to measure the ability (potency; fpKb) of antagonists to reduce agonist (orexin A)-induced inositol phosphate turnover. Briefly, cells were plated onto half area 96-well white walled plates at a density of 12,500 cells/well. Sixteen hours post-plating cell growth media was replaced with antagonist concentration-response curve diluted in stimulation buffer (supplied with the kit). Cells were incubated in a humidified incubator (37° C.) for 30 min before an EC80 challenge concentration ( 20 nM (OX1) and 40 nM (OX2)) of orexin A (Tocris catalogue number 1455). After 30 min stimulation in a humidified incubator (37° C.) the assay was terminated by the addition of detection mixture as per manufacturer's instructions. The concentration of compound which reduced orexin-A stimulated turnover of inositol phosphates by 50% (IC50) was calculated by fitting to a four parameter sigmoidal dose response curve. The IC50 values were converted to fpKB values using the orexin A pEC50 value estimated on each plate as well as the challenge concentration interpolated from the orexin A control curve.
Take `Cc1ncc(N2CCc3c(F)cccc3N(Cc3c(F)cc(Br)cc3F)C2=O)cc1C(C)(F)F` [Example 32, 1-(4-bromo-2,6-difluorobenzyl)-3-[5-(1,1-difluoroethyl)-6-methylpyridin-3-yl]-6-fluoro-1,3,4,5-tetrahydro-2H-1,3-benzodiazepin-2-one]: the Kb was 63.1 nM.

Consider `COCc1cc(F)c(CN2C(=O)N(c3cnc(C)c(C(C)(F)F)c3)CCc3c(F)cccc32)c(F)c1` [Example 33, 3-[5-(1,1-difluoroethyl)-6-methylpyridin-3-yl]-1-[2,6-difluoro-4-(methoxymethyl)benzyl]-6-fluoro-1,3,4,5-tetrahydro-2H-1,3-benzodiazepin-2-one], for which the Kb is 15.8 nM.

Turning to `CCCc1cc(F)c(CN2C(=O)N(c3cnc(C)c(C(C)(F)F)c3)CCc3c(F)cccc32)c(F)c1` [Example 34, 3-[5-(1,1-difluoroethyl)-6-methylpyridin-3-yl]-1-(2,6-difluoro-4-propylbenzyl)-6-fluoro-1,3,4,5-tetrahydro-2H-1,3-benzodiazepin-2-one], the Kb is 79.4 nM.

`Cc1ncc(N2CCc3c(F)cccc3N(Cc3c(F)cc(Br)cc3F)C2=O)cc1OC(F)F` [Example 37, 1-(4-bromo-2,6-difluorobenzyl)-3-[5-(difluoromethoxy)-6-methylpyridin-3-yl]-6-fluoro-1,3,4,5-tetrahydro-2H-1,3-benzodiazepin-2-one]: the Kb was 20 nM.

These data come from patent publication US20210179578A1, “OX1 ANTAGONISTS” (Heptares Therapeutics Limited, priority 2017, published 2021).
